The compounds below were run against T1, PI3Kγ (Homo sapiens, UniProt P48736) (assay: PI3Kγ in vitro kinase assay (32P-ATP, PIP2 lipid micelles, filter plate)). Conditions: purified recombinant p101/p110γ protein with G protein β1/γ2 subunits; 20 μM ATP; 25 μM PIP2; 20 minutes at room temperature.
T1 construct: HA; made in house; host or cells: Spodoptera frugiperda (Sf9) cells, baculovirus coinfection
Assay type: biochemical
Protocol: Spodtera frugiperda cells, grown in ESF921 media, were coinfected with baculovirus expressing a glu-tagged p101 and baculovirus expressing an HA-tagged p110γ, at a 3:1 ratio of p101 baculovirus to p110γ baculovirus. Sf9 cells were grown to 1×10^7 total cells/mL in 10 L bioreactors and harvested 48-72 hours post infection. Samples of infected cells were then tested for expression of p101/p110γ PI3 kinase by immunoprecipitation and Western Blot analysis methods (see below). To purify PI3Kγ, 4 volumes of room temperature hypotonic lysis buffer (1 mM MgCl2, 1 mM DTT, 5 mM EGTA, 1 mM Pefabloc, 0.5 μM aprotinin, 5 μM leupeptin, 2 μM pepstatin, 5 μM E64, pH 8) per gram of cell paste, was poured onto frozen cell pellets with stirring, then lysed in a nitrogen “bomb” at 400 psi (599HC […], Parr Instrument Co, Moline, Ill.). NaCl was added to 150 mM, and sodium cholate was added to 1% and mixed for another 45 minutes. The lysates were clarified by centrifugation for 25 minutes at 14,000 rpm. The lysates were then loaded over anti-glu-linked Protein-G Sepaharose beads (Covance Research Products, Richmond, Calif.) using 20 mL resin/50 g cell paste. The column was washed with 15 volumes of wash buffer (1 mM DTT, 0.2 mM EGTA, 1 mM Pefabloc, 0.5 μM aprotinin, 5 μM leupeptin, 2 μM pepstatin, 5 μM E64, 150 mM NaCl, 1% sodium cholate, pH 8). PI3Kγ was eluted with 6 column volumes of wash buffer that contain 100 μg/mL of a peptide that competes for binding of the glu tag. The column fractions with the eluted protein (determined by taking OD280 readings) were collected and dialyzed in 0.2 mM EGTA, 1 mM DTT, 1 mM Pefabloc, 5 μM leupeptin, 0.5% sodium cholate, 150 mM NaCl, and 50% glycerol, pH 8. The fractions were stored at -80° C. until further use. Spodtera frugiperda cells were coinfected with baculovirus expressing a glu-tagged G protein β1 and baculovirus expressing a […], at a 1:1 ratio of glu-tagged G protein β1 baculovirus to G protein β2 baculovirus. Sf9 cells are grown in 10 L bioreactors and harvested 48-72 hours post infection. Samples of infected cells were tested for G protein β1/β2 expression by Western Blot analysis, as described below. Cell lysates were homogenized and loaded onto a column of glu-tagged beads as in Biological Example 1 and competed off the column with a glu peptide and processed as described in Biological Example 1. The inhibitory properties of the compounds in Table 1 were assayed in an in vitro PI3K assay. In a 96-well polypropylene plate, each well was spotted with […] of 50 times the desired final concentration of compound in DMSO. Purified recombinant p101/p110γ protein (0.03 μg; 2.7 nM) and G protein β1/γ2 subunits (0.09 μg; 57.7 nM) for each reaction was combined in the assay buffer (30 mM HEPES, 100 mM NaCl, 1 mM EGTA, and 1 mM DTT). ATP and [γ-^32P-ATP] (0.09 μCi) were added to this mixture so that the final ATP concentration in the reaction was 20 μM. Lipid micelles were formed by sonicating phosphatidylinositol4,5-diphosphate (PIP2), phosphatidylethanolamine (PE), and Na-cholate in the assay buffer for 10 minutes, adding MgCl2 and incubating on ice for 20 minutes, for final concentrations of 25 μM PIP2, 300 μM PE, 0.02% Na-cholate, and 10 mM MgCl2 in the reaction. The reactions were started by adding equal volumes lipid and enzyme mixture in a total volume of 50 μL, allowed to run for 20 minutes at room temperature, and stopped with 100 μL 75 mM H3PO4. The lipid product was transferred to a glass fiber filter plate and washed with 75 mM H3PO4 several times. The presence of radioactive lipid product (PIP3) was measured by adding Wallac Optiphase mix to each well and counting in a Wallac 1450 Trilux plate reader (PerkinElmer Life Sciences Inc., Boston, Mass. 02118). The IC50 for each compound tested is reported in μM in Table 1: […]

T1 sequence (P48736 whole entry, species assumed): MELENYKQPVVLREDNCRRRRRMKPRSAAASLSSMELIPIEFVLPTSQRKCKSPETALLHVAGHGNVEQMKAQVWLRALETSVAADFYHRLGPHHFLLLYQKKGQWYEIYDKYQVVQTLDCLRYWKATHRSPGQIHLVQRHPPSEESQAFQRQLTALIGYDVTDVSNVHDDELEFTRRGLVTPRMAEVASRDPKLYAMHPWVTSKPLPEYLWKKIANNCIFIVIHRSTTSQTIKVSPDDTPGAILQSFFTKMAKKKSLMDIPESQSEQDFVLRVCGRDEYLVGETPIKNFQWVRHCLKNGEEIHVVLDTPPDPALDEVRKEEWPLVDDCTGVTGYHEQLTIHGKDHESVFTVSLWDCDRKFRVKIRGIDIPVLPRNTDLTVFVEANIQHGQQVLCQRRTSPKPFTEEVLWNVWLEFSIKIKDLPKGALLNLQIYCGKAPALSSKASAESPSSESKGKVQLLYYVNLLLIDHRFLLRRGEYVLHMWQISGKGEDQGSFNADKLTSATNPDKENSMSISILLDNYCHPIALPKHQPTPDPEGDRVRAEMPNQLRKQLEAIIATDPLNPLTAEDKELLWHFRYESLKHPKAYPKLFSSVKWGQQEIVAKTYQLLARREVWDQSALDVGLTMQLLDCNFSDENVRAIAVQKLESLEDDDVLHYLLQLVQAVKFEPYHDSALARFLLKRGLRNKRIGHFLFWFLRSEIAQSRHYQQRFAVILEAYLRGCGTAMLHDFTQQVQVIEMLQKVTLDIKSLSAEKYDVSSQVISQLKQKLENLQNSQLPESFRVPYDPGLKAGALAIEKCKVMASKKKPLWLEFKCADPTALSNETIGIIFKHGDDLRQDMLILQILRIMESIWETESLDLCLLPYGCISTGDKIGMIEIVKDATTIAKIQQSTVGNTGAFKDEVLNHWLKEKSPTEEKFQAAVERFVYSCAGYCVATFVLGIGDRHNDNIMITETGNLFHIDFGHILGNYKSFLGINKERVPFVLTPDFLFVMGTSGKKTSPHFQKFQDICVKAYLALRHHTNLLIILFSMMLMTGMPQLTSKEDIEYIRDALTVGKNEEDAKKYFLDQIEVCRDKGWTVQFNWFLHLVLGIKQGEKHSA
T1 sequence (Q8WYR1 whole entry partner, species assumed): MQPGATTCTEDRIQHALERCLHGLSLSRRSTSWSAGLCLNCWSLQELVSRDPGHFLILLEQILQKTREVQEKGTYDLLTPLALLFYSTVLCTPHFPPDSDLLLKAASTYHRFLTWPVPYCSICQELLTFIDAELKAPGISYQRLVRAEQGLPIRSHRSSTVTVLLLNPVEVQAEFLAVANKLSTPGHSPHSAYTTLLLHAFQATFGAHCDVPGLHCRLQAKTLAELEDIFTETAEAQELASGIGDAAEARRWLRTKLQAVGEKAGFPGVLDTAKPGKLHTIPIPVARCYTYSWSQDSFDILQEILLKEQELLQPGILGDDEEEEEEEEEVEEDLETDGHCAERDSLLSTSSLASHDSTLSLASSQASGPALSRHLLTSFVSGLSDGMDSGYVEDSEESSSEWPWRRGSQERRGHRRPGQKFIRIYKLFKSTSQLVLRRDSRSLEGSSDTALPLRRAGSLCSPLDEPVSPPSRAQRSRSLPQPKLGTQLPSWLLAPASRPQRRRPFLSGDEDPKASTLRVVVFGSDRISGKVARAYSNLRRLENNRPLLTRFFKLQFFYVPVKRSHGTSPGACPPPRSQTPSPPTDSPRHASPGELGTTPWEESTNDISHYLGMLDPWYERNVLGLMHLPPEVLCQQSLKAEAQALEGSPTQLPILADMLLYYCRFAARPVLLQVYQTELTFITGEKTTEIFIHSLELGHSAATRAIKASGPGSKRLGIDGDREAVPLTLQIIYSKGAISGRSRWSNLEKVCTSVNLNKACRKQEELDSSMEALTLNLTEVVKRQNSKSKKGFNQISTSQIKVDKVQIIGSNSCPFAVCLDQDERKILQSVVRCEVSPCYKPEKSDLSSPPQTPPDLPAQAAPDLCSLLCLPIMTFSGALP

| Compound | IC50 [nM] |
| --- | --- |
| COc1ccc2sc(C(=O)Nc3nnn[nH]3)c(Sc3ccc4c(c3)OCO4)c2c1 [Example 27, 3-(benzo[1,3]dioxol-5-ylsulfanyl)-5-methoxy-benzo[b]thiophene-2-carboxylic acid(1H-tetrazol-5-yl)-amide] | 1690 |
| COc1cc2sc(C(=O)Nc3nnn[nH]3)c(Sc3ccc(O)cc3)c2cc1OC [Example 28, 3-(4-hydroxy-phenylsulfanyl)-5,6-dimethoxy-benzo[b]thiophene-2-carboxylic acid(1H-tetrazol-5-yl)-amide] | 1840 |
| COc1cc2sc(C(=O)Nc3nnn[nH]3)c(Sc3ccoc3C)c2cc1OC [Example 29, 5,6-dimethoxy-3-(2-methyl-furan-3-ylsulfanyl)-benzo[b]thiophene-2-carboxylic acid(1H-tetrazol-5-yl)-amide] | 2160 |
| COc1cc2c(Sc3ccc(O)cc3)c(C(=O)Nc3nnn[nH]3)sc2cc1C [Example 30, 3-(4-Hydroxy-phenylsulfanyl)-5-methoxy-6-methyl-benzo[b]thiophene-2-carboxylic acid(1H-tetrazol-5-yl)-amide] | 625 |
| COC(=O)Cc1ccc(Sc2c(C(=O)Nc3nnn[nH]3)sc3cc(C)c(OC)cc23)cc1 [Example 31, {4-[5-Methoxy-6-methyl-2-(1H-tetrazol-5-ylcarbamoyl)-benzo[b]thiophen-3-ylsulfanyl]-phenyl}-acetic acid methyl ester] | 3960 |
| COC(=O)CCc1ccc(Sc2c(C(=O)Nc3nnn[nH]3)sc3cc(C)c(OC)cc23)cc1 [Example 32, 3-{4-[5-Methoxy-6-methyl-2-(1H-tetrazol-5-ylcarbamoyl)-benzo[b]thiophen-3-ylsulfanyl]-phenyl}-propionic acid methyl ester] | 4530 |
| COc1cccc(Sc2c(C(=O)Nc3nnn[nH]3)sc3cc(C)c(OC)cc23)c1 [Example 34, 5-Methoxy-3-(3-methoxy-phenylsulfanyl)-6-methyl-benzo[b]thiophene-2-carboxylic acid(1H-tetrazol-5-yl)-amide] | 207 |
| COc1cc2c(Sc3ccc(C(C)C)cc3)c(C(=O)Nc3nnn[nH]3)sc2cc1C [Example 35, 3-(4-Isopropyl-phenylsulfanyl)-5-methoxy-6-methyl-benzo[b]thiophene-2-carboxylic acid(1H-tetrazol-5-yl)-amide] | 370 |
| COc1cc2sc(C(=O)Nc3nnn[nH]3)c(Sc3cccc(O)c3)c2cc1OC [Example 36, 3-(3-Hydroxy-phenylsulfanyl)-5,6-dimethoxy-benzo[b]thiophenes-2-carboxylic acid(1H-tetrazol-5-yl)-amide] | 1880 |
| COc1ccc(Sc2c(C(=O)Nc3nnn[nH]3)sc3cc(C)c(OC)cc23)cc1 [Example 37, 5-Methoxy-3-(4-methoxy-phenylsulfanyl)-6-methyl-benzo[b]thiophene-2-carboxylic acid(1H-tetrazol-5-yl)-amide] | 808 |
| COc1cc2sc(C(=O)Nc3nnn[nH]3)c(Sc3ccc(O)cc3)c2cc1C [Example 38, 3-(4-Hydroxy-phenylsulfanyl)-6-methoxy-5-methyl-benzo[b]thiophene-2-carboxylic acid(1H-tetrazol-5-yl)-amide] | 885 |
| COc1cc2sc(C(=O)Nc3nnn[nH]3)c(Sc3cccc(O)c3)c2cc1C [Example 39, 3-(3-Hydroxy-phenylsulfanyl)-6-methoxy-5-methyl-benzo[b]thiophene-2-carboxylic acid(1H-tetrazol-5-yl)-amide] | 980 |
| COC(=O)Cc1ccc(Sc2c(C(=O)Nc3nnn[nH]3)sc3cc(OC)c(C)cc23)cc1 [Example 40, {4-[6-Methoxy-5-methyl-2-(1H-tetrazol-5-ylcarbamoyl)-benzo[b]thiophen-3-ylsulfanyl]-phenyl}-acetic acid methyl ester] | 1260 |
| COC(=O)CCc1ccc(Sc2c(C(=O)Nc3nnn[nH]3)sc3cc(OC)c(C)cc23)cc1 [Example 41, 3-{4-[6-Methoxy-5-methyl-2-(1H-tetrazol-5-ylcarbamoyl)-benzo[b]thiophen-3-ylsulfanyl]-phenyl}-propionic acid methyl ester] | 4080 |
| COc1cc2sc(C(=O)Nc3nnn[nH]3)c(Sc3cccc(C(F)(F)F)c3)c2cc1C [Example 42, 6-Methoxy-5-methyl-3-(3-trifluoromethyl-phenylsulfanyl)-benzo[b]thiophene-2-carboxylic acid(1H-tetrazol-5-yl)-amide] | 2170 |
| COc1cc2sc(C(=O)Nc3nnn[nH]3)c(SC(c3ccccc3)C(C)N(C)C(C)=O)c2cc1C (centres unmarked) [Example 44, 3-[2-(Acetyl-methyl-amino)-1-phenyl-propylsulfanyl]-6-methoxy-5-methyl-benzo[b]thiophene-2-carboxylic acid(1H-tetrazol-5-yl)-amide] | 2780 |
| COc1cc2sc(C(=O)Nc3nnn[nH]3)c(Sc3cccc(Cl)c3)c2cc1C [Example 45, 3-(3-Chloro-phenylsulfanyl)-6-methoxy-5-methyl-benzo[b]thiophene-2-carboxylic acid(1H-tetrazol-5-yl)-amide] | 465 |
| COc1cccc(Sc2c(C(=O)Nc3nnn[nH]3)sc3cc(OC)c(C)cc23)c1 [Example 46, 6-Methoxy-3-(3-methoxy-phenylsulfanyl)-5-methyl-benzo[b]thiophene-2-carboxylic acid(1H-tetrazol-5-yl)-amide] | 600 |
| COc1cc2sc(C(=O)Nc3nnn[nH]3)c(Sc3ccc(C(C)C)cc3)c2cc1C [Example 47, 3-(4-Isopropyl-phenylsulfanyl)-6-methoxy-5-methyl-benzo[b]thiophene-2-carboxylic acid(1H-tetrazol-5-yl)-amide] | 3130 |
| COC(=O)Cc1ccc(Sc2c(C(=O)Nc3nnn[nH]3)sc3cc(OC)c(OC)cc23)cc1 [Example 49, {4-[5,6-Dimethoxy-2-(1H-tetrazol-5-ylcarbamoyl)-benzo[b]thiophen-3-ylsulfanyl]-phenyl}-acetic acid methyl ester] | 1290 |
| COc1cc2sc(C(=O)Nc3nnn[nH]3)c(Sc3cccc(C(F)(F)F)c3)c2cc1OC [Example 50, 5,6-Dimethoxy-3-(3-trifluoromethyl-phenylsulfanyl)-benzo[b]thiophene-2-carboxylic acid(1H-tetrazol-5-yl)-amide] | 3380 |
| COc1cccc(Sc2c(C(=O)Nc3nnn[nH]3)sc3cc(OC)c(OC)cc23)c1 [Example 51, 5,6-Dimethoxy-3-(3-methoxy-phenylsulfanyl)-benzo[b]thiophene-2-carboxylic acid(1H-tetrazol-5-yl)-amide] | 438 |
| COc1cc2c(Sc3ccc(N(C)C)cc3)c(C(=O)Nc3nnn[nH]3)sc2cc1C [Example 53, 3-(4-Dimethylamino-phenylsulfanyl)-5-methoxy-6-methyl-benzo[b]thiophene-2-carboxylic acid(1H-tetrazol-5-yl)-amide] | 390 |
| COc1cc2c(SCCc3ccccc3)c(C(=O)Nc3nnn[nH]3)sc2cc1C [Example 54] | 50 |
| COc1cc2c(Sc3ccc(C(=O)O)cc3)c(C(=O)Nc3nnn[nH]3)sc2cc1C [Example 55, 4-[5-Methoxy-6-methyl-2-(1H-tetrazol-5-ylcarbamoyl)-benzo[b]thiophen-3-ylsulfanyl]-benzoic acid] | 265 |
| COc1cc2c(Sc3ccc(CC(=O)O)cc3)c(C(=O)Nc3nnn[nH]3)sc2cc1C [Example 56, {4-[5-Methoxy-6-methyl-2-(1H-tetrazol-5-ylcarbamoyl)-benzo[b]thiophen-3-ylsulfanyl]-phenyl}-acetic acid] | 115 |

Source: patent US20040248953A1, “3-Arylsulfanyl and 3-heteroarylsulfanyl substituted benzo[b]thiophenes as therapeutic agents” (priority 2003, published 2004)
